Laboratory results: patent publication US20110287059A1, “HONEY ANALYSIS” (COMVITA NEW ZEALAND LIMITED, priority 2008, published 2011)

Assay: Antioxidant activity by ABTS radical assay (Trolox Equivalent Antioxidant Capacity)
Format: biochemical
Settings: standard
Protocol: Antioxidant activity was determined by the ABTS assay using a spectrophotometric method for antioxidant activity using the ABTS radical assay (expressed as Trolox Equivalent Antioxidant Capacity) based on the method of Miller & Rice-Evans (Miller, N.J.; Rice-Evans, C.A. 1997: Factors influencing the antioxidant activity determined by the ABTS+radical cation assay. Free Radical Research 26(3): 195-199). All samples were diluted with warm water as required to bring into the appropriate range for the assay.

For COc1cc(C(=O)O)cc(OC)c1O [syringic acid], the “Antioxidant Activity by ABTS Assay, Average” value (“Antioxidant Activity” below) (760 mg/kg) was 499.6 μmole TEAC/100 g.

For COC(=O)c1cc(OC)c(O)c(OC)c1 [methylsyringate, methyl syringate], the “Antioxidant Activity” value (290 mg/kg) was 85.1 μmole TEAC/100 g.

With O=C(O)c1cc(O)c(O)c(O)c1 [gallic acid] the “Antioxidant Activity” value (700 mg/kg) was 1695.4 μmole TEAC/100 g.

With COc1ccccc1C(=O)O [2-methoxybenzoic, 2-methoxybenzoic acid] the “Antioxidant Activity” value (80 mg/kg) was 51.8 μmole TEAC/100 g.
